Laboratory results taken from BindingDB's records for doi:10.1107/s0907444999007350 (Berlex, 1999).

biological target: Coagulation factor X (Homo sapiens, UniProt P00742); assay: Enzyme Inhibition Assay; details: pH 7.5; 22 °C
Procedure: The enzyme activities were determined kinetically as the initial rate of cleavage of a peptide p-nitroanilide. Km for enzyme and substrate was determined using four substrate dilutions. Enzyme was incubated with test compounds for 10 min; the reaction was then started by the addition of the substrate. […] IC50 values for inhibitors were determined from the dose response curve by fitting the data to the Hill equation. Ki,app values were calculated as the IC50/2, with the IC50 value determined at a substrate concentration equal to Km

Coagulation factor X, sequence (P00742 41-179 limits assumed): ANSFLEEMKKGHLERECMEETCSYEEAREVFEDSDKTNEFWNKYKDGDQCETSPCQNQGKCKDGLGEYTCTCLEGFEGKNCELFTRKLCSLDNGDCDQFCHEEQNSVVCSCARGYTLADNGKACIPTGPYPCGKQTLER
Coagulation factor X, sequence (P00742 235-488 limits assumed): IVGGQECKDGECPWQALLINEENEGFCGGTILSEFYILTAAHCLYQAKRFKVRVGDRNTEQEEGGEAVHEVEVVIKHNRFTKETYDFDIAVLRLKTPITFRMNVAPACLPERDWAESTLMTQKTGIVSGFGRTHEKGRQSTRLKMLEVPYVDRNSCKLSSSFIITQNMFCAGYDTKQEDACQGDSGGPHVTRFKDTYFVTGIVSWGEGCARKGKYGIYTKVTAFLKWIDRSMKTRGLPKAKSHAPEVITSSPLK

| Ki [nM] | Structure (SMILES) |
| --- | --- |
| 0.11 | CN1CCN=C1c1cccc(Oc2nc(Oc3cc(C(=N)N)ccc3O)c(F)c(N3CCCC(C(=O)O)C3)c2F)c1 (stereo not drawn) [1-[2-(5-carbamimidoyl-2-hydroxyphenoxy)-3,5-difluoro-6-[3-(1-methyl-4,5-dihydro-1H-imidazol-2-yl)phenoxy]pyridin-4-yl]piperidine-3-carboxylic acid] |
| 1.6 | [H]/N=C(/C)N1CCC(Oc2ccc3c4ccccc4n(Cc4ccc5ccc(C(=N)N)cc5c4)c3c2)CC1 [ZK-806450] |
| 14 | Cc1c(F)c(Oc2cccc(C(=N)N)c2)nc(Oc2cccc(C(=N)N)c2)c1F |
